Assay results taken from PubChem BioAssay AID463074 (Broad Institute, 2010).
Active and inactive are the calls of the source.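 How the source made its calls: active means AC50 no more than tenfold above the top dose tested, or full inhibition at every dose with a flat fit (cut at about 19 µM in these data); inconclusive means flat curve fit with inhibition between 30% and 70%, or poor fit; inactive means AC50 more than tenfold above the top dose tested.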

Test system: HMLE_sh_eGFP viability, CellTiter-Glo luminescence, 72 h
Assay: viability loss of HMLE_sh_eGFP cells – cell-based, luminescence, counter-screen for HMLE_sh_ECad selective toxicity project, dose response (AID 463074);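 further: counterscreen control line to flag general toxicity for the HMLE_sh_ECad screen; potency for loss of viability as luminescence drops below DMSO wells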

| SMILES | AC50 |
| --- | --- |
| CC(=O)c1ccc(N2CCN(c3ccc(S(=O)(=O)NCCCN(C)C)cc3[N+](=O)[O-])CC2)cc1 | 2.92 µM |
| Fc1ccc(NC(=S)Nc2cc(-c3ccccc3)[nH]n2)cc1Cl | 3.46 µM |
| O=[N+]([O-])c1cccnc1N1CCC(c2cc(-c3cccc(C(F)(F)F)c3)n[nH]2)CC1 | 3.56 µM |
| CCCOC(=O)c1ccc(Oc2c(-c3ccc(OCC)cc3O)n[nH]c2C)cc1 | 4.06 µM |
| CCCCC(CC)CN1C(=O)/C(=C/c2ccncc2)SC1=S (stereo not given) | 6.81 µM |
| Clc1cccc(Nc2nc(-c3ccncc3)cs2)c1 | 5.03 µM |
| Cc1ccc(N/N=C/c2ccncc2)cc1 | 7.44 µM |
| O=C(NCCCN1CCOCC1)c1ccc(CSc2ccc(Cl)cc2)cc1 | 7.77 µM |
| CC(=O)Oc1ccc2c(=O)c(-c3nc4ccccc4s3)coc2c1 | 9.34 µM |
| N/C(=N\N=C/c1ccc(F)cc1)N/N=C\c1ccc(F)cc1 | 5.13 µM |
| Cn1ncc2c(Nc3cccc(Cl)c3)nc(Nc3cccc(Cl)c3)nc21 | 3.71 µM |
| Cc1ccc(/C=C\c2nccc3c2[nH]c2ccccc23)cc1 | 13.2 µM |
| Cc1ccc(N/N=C/c2cccnc2)cc1 | 6.14 µM |
| Cc1cc(C(C)(C)C)ccc1OCCCCN1CCCC1 | 4.22 µM |
| CCOC(=O)C(=O)NNc1ccc(F)cc1 | 1.45 µM |
| COc1ccc(OC)c(-c2csc(N(CC3CCCO3)C(=O)C3CCCCC3)n2)c1 (stereo not given) | 7.05 µM |
| FC(F)(F)c1ccc(-c2noc(CN3CCCN(C4CCCCC4)CC3)n2)cc1 | 7.39 µM |
| O=C(O)CCn1cc(/C=C/C(=O)c2ccc(Cl)cc2)c(-c2ccc(Br)cc2)n1 | 7.09 µM |
| COc1cc(OC)cc(C(=O)NCCNc2nc3cc(C)cc(C)c3cc2C#N)c1 | > 19.5 µM (inactive) |
| O=S(=O)(c1ccc(Cl)cc1)N1CCN(Cc2ccc(O)c3ncccc23)CC1 | 6.21 µM |
| COc1ccc(C2NCCc3c2[nH]c2ccccc32)cc1CSc1nc2ccccc2s1 (stereo not given) | 4.98 µM |
| O=C(Nc1ccc(Cl)cc1)Nc1nnc(-c2ccncc2)s1 | 2.42 µM |

| SMILES | AC50 |
| --- | --- |
| O=C(NNC1=C(C(=O)C(F)(F)F)CCC1)c1ccc(Br)cc1 | 3.6 µM |
| Cc1cc(C)nc(NC(=O)/C=C/c2cccs2)c1 | > 19.5 µM (inactive) |
| CCOc1ccc(/C=C/C(O)=C2/C(=O)N(C)C3(C)CC2c2ccccc2O3)cc1OC (stereo not given) | 5.95 µM |
| CCN1CCN(CCCNC(=O)c2ccc(/C=C3/Sc4ccccc4N(Cc4ccccc4F)C3=O)cc2)CC1 | 3.14 µM |
| O=C(O)c1cccc(S(=O)(=O)NNc2ccccc2C(F)(F)F)c1 | 11.3 µM |
| CCNS(=O)(=O)c1ccc(NC(=O)Nc2cccc(C(F)(F)F)c2)cc1 | 13.5 µM |
| Cc1cc(Nc2cccc(Cl)c2)nc(NCc2ccccc2)n1 | 3.73 µM |
| COc1ccc(/C=N/N(c2ccccc2)c2ccccc2)cc1O | 7.09 µM |
| Cc1ccc(NC(=S)Nc2ccc(C(C)C)cc2)cc1S(=O)(=O)N1CCCCCC1 | 3.82 µM |
| CC(NS(=O)(=O)OCC(Cl)(Cl)Cl)c1ccc(C(C)(C)C)cc1 (stereo not given) | 3.57 µM |
| Cc1ccc(S[C@@H](CCN2CC[C@H](C(C)(C)C)CCC2=O)c2ccccc2)cc1 | 3.57 µM |
| CCCCCc1cc(=O)oc2c(C(CCN3CCCCC3)c3ccc(OC)cc3)c(OC)cc(OC)c12 (stereo not given) | 7.47 µM |
| COc1ccc(/C=N/N(Cc2ccccc2)c2ccccc2)cc1O | 6.77 µM |
| Cc1ccccc1N=C1SC(CC(=O)Nc2ccc3ccccc3c2)C(=O)N1Cc1ccccn1 (stereo not given) | 6.02 µM |
| N#Cc1c(/N=C/N2CCCC2)oc(-c2ccccc2)c1-c1ccccc1 | 3.02 µM |
| CCc1ccc2nc(SCC(=O)Nc3ccccc3N3CCOCC3)c(C#N)cc2c1 | 2.73 µM |
| CCC(C)Sc1ccc(-c2nc3cnccn3c2NC2CCCCC2)cc1 (stereo not given) | 3.73 µM |
| O=C(N/N=C\c1cc(Br)ccc1O)c1ccc(S(=O)(=O)N2CCCCC2)cc1 | 2.75 µM |
| Cc1cccc(Cn2cc(/C=C/[N+](=O)[O-])c3ccccc32)c1 | 3.47 µM |
| CCCCNc1c(-c2cccc(Sc3ccc(OC)cc3)c2)nc2ccccn12 | 6.56 µM |
| Cc1ccc(C)c(OCCCCN2CCNCC2)c1C | 6.15 µM |
| Cc1cccc(-c2cc3nc(C)cc(N4CC(C)CC(C)C4)n3n2)c1 (stereo not given) | 6.87 µM |

| SMILES | AC50 |
| --- | --- |
| Cc1cccc(-c2nc(Nc3cccc(O)c3)c3ccccc3n2)c1 | 5.27 µM |
| Nc1nc(=S)c2ncn([C@@H]3O[C@H](CO)[C@@H](O)[C@H]3O)c2[nH]1 | 0.465 µM |
| C=C(C)COc1ccc(-c2n[nH]c(C)c2-c2ccc(Br)cc2)c(O)c1 | 3.25 µM |
| Cc1cc(C)cc(-n2c(C)cc(/C=C3\C(=N)N4N=C(CC(C)C)SC4=NC3=O)c2C)c1 | 4.82 µM |
| Cc1cc(NC(=O)c2cc(-c3ccncc3)nc3ccccc23)ccc1Br | 6.77 µM |
| Cn1nnnc1Sc1ncnc2scc(-c3ccc(Cl)cc3)c12 | 3.3 µM |
| O=C(NNc1ccc(Cl)cc1)c1cccs1 | 1.58 µM |
| CC(=O)Oc1ccc(C2=NN(c3ccccc3)C(c3ccccc3)C2)cc1 (stereo not given) | 4.18 µM |
| COc1cc(Nc2ccc(C)cc2)c([N+](=O)[O-])nc1[N+](=O)[O-] | 5.74 µM |
| Cc1cccc2[nH]c3c(N4CC=C(c5ccc(F)cc5)CC4)ncnc3c12 | 5.01 µM |
| O=C(NCCc1c[nH]c2ccccc12)C1CCC(Cn2c(=S)[nH]c3ccccc3c2=O)CC1 (stereo not given) | 0.707 µM |
| O=S(=O)(Nc1ccc(O)c2ccccc12)c1ccc(OC(F)(F)F)cc1 | 12.5 µM |
| CCN(CC)CCCNC(=S)N1CCN(c2nc(-c3ccccc3)cs2)CC1 | 5.65 µM |
| C/C(N=Nc1nc2ccccc2s1)=N\Nc1ccccc1O | 6.1 µM |
| COc1cc(-c2noc(C)c2C#Cc2ccccn2)cc(OC)c1OC | 1.16 µM |
| Cc1cc2nc(NCCCO)n(CC(=O)c3cc(C(C)(C)C)c(O)c(C(C)(C)C)c3)c2cc1C | 3.56 µM |
| O=[N+]([O-])c1c(NCCCO)cc(Sc2ccc(Cl)cc2)c2nonc12 | 4.89 µM |
| COc1cccc(/C=C/c2nc(C#N)c(NCC(C)C)o2)c1 | 5.06 µM |
| COc1ccc(C(=O)c2ccc3oc(-c4ccc(OC)cc4)c(-c4ccc(O)cc4)c3c2)cc1 | 3.87 µM |
| COc1ccc(-c2cc([C@H]3[C@@H]4C=CCC[C@@]4(C)C(=O)N3Cc3ccccc3)ccc2F)cc1 | 6.8 µM |
| CC(C)OC(=O)c1c2c(n3ccccc13)C(=O)c1ccccc1C2=O | > 19.5 µM (inactive) |
| CC(C)=CCc1c(O)c(CC=C(C)C)c2occ(-c3ccc(O)cc3)c(=O)c2c1O | 3.49 µM |

| SMILES | AC50 |
| --- | --- |
| Oc1ccc(/C=N/Nc2ccc(C(F)(F)F)cn2)c(O)c1 | 6.58 µM |
| COc1ccccc1-c1sc2ccccc2c1C#CC1(O)CCCCC1 | 10.8 µM |
| Oc1cccc(C(O)CNCc2ccc(OCc3ccc(Cl)cc3Cl)cc2)c1 (stereo not given) | 7.09 µM |
| Cc1cc(/C=N/n2c(COc3ccccc3)nc3ccccc3c2=O)c(O)c([N+](=O)[O-])c1 | > 10 µM (inactive) |
| COc1ccc(CCNc2ccc(C(CC(N)=O)NC(=O)c3ccc(Br)cc3)cc2[N+](=O)[O-])cc1 (stereo not given) | 11.7 µM |
| O=C1/C(=C\c2cccnc2)CN(Cc2ccccc2)C/C1=C\c1cccnc1 | 3.9 µM |
| COc1cc(/C=C(/C#N)c2nc3ccccc3[nH]2)ccc1OCC(=O)Nc1ccccc1C | 1.06 µM |
| N#C/C(=C\c1c(F)cccc1Cl)c1nn(-c2ccccc2)c(-n2cccc2)c1C#N | 1.71 µM |
| CC(C)OC(=O)C(=O)NNc1ccccc1 | 1.22 µM |
| COc1cc(OC)cc(C(=O)Nc2ccc(Nc3ccccc3)cc2)c1 | 7.41 µM |
| C/C(=N\Nc1ccccc1)c1c(O)[nH]c(=O)[nH]c1=O | 2.25 µM |
| O=C1NC[C@@H](Cc2cccc3ccccc23)N(CCCCC2CCCCC2)C1=O | 7.05 µM |
| C=C(C)COc1ccc(-c2[nH]ncc2-c2ccc(OC)cc2)c(O)c1 | 8.86 µM |
| CN1CCN(c2ccccc2NC(=O)c2ccc(-c3ccc(Cl)cc3Cl)o2)CC1 | 6.57 µM |
| Cc1ccccc1NC(=O)C(Cl)=C(Cl)Cl | 7.21 µM |
| COc1ccccc1NC(=O)c1c(Nc2ccccc2F)sc(C(=O)Nc2cccc(Cl)c2)c1N | 2.95 µM |
| CCn1c2ccccc2c2cc(NC(=O)c3cc(OC)cc(OC)c3)ccc21 | 0.258 µM |
| Cc1ccc(NC(=O)/C=C/c2ccc3c(c2)OCO3)nc1 | 1.16 µM |
| CC(C)Cn1c(O)c(N=NC(=O)c2cccc(S(=O)(=O)N3CCCCC3)c2)c2ccccc21 | 1.57 µM |
| CC1(NC(=O)CC(c2ccccc2)(c2ccccc2)c2ccccc2)CCN(CCCc2ccccc2)C1=O (stereo not given) | 6.85 µM |
| COc1ccc(-c2cc(C(F)(F)F)nc(S(C)(=O)=O)n2)cc1 | 3.56 µM |
| COc1ccccc1Nc1ccc(NC(=O)c2cccc([N+](=O)[O-])c2C)cc1 | 3.82 µM |

| SMILES | AC50 |
| --- | --- |
| Cc1cccc(NC(=S)N/N=C/c2c[nH]c3ccccc23)c1 | 1.63 µM |
| CC1=C(/C=C/C(C)=C/C=C/C(C)=C/C(=O)Nc2ccc(O)cc2)C(C)(C)CCC1 | 2.26 µM |
| O=C(N/C=N/OCc1ccc(Cl)cc1Cl)NOCc1ncc(C(F)(F)F)cc1Cl | 5.04 µM |
| COc1ccc(NC(=O)c2ccc(COc3ccccc3Br)o2)c(OC)c1 | 3.67 µM |
| COc1cc2c(cc1OC)C(c1ccc(-c3ccc(Cl)c(Cl)c3)o1)=NCC2 | 3.99 µM |
| COc1cccc(/C=N/NC(=O)c2ccc(-c3ccccc3)cc2)c1O | 3.33 µM |
| COc1ccc(Oc2c(Cl)cnn(-c3ccc(Cl)c(Cl)c3)c2=O)cc1 | 3.44 µM |
| CCc1c(C)sc(NC(=O)/C=C/c2ccc3c(c2)OCO3)c1C(=O)OC | 0.776 µM |
| O=C(COc1ccccc1-c1ccccc1)N/N=C/c1ccc2ccccc2c1 | 3.67 µM |
| O/N=C/c1ccnc(SCc2ccc(Cl)cc2)n1 | 10.9 µM |
| Nc1c(C(O)(C(F)(F)F)C(F)(F)F)cc(C(O)(C(F)(F)F)C(F)(F)F)c2ccccc12 | 3.95 µM |
| CCc1ccc(NC(=O)c2cc3c(C)nc4ccccc4c3o2)cc1 | 11.9 µM |
| CCS(=O)(=O)Nc1ccc(-c2cc(-c3ccccc3)c3cc(C)ccc3n2)cc1 | 3.85 µM |
| CCCCOC(=O)c1c(C)oc2ccc(NS(=O)(=O)c3ccc4c5c(cccc35)C(=O)N4)cc12 | 9.12 µM |
| Cc1ccc(C(=O)Nc2ncc(Cc3ccccc3)s2)o1 | 1 µM |
| Cc1ccc2nc(Cl)c3cc(C(=O)N(CCN(C)C)Cc4ccco4)sc3c2c1 | 3.53 µM |
| CC(C)(c1ccccc1)c1ccc(OCCCN2CCNCC2)cc1 | 0.745 µM |
| COC(=O)c1cccc(Nc2cc(C)nc(-c3ccccc3O)n2)c1 | 8.82 µM |
| O=[N+]([O-])c1ccc(CP(=O)(c2ccccc2)c2ccccc2)cc1 | > 19.5 µM (inactive) |
| Cc1ccc(S(=O)(=O)N(C)c2ccc(OCc3cccc(C)c3)cc2)cc1 | 1.99 µM |
| Oc1ccccc1/C=N/NP(=S)(c1ccccc1)c1ccccc1 | 6.98 µM |
| CCCCCCCCNC(C)C(O)c1ccc(SC(C)C)cc1 (stereo not given) | 3.83 µM |
